Results as given in the supplement of paper PMC10627819.

How the values were obtained:
[1] = tested on: S. pneumoniae D39V; test: fitness (endpoint OD595 vs no drug) (fraction); higher = more growth
Method in brief: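 Each well of a 384-well plate received 30 µl of culture at OD595 0.01, or 55 µl for S. pneumoniae. TSB, LB Lennox or CY served as media at 37 °C. OD595 was taken every 30 min for 14 h and corrected by subtracting the first reading. Fitness is the optical density at stationary-phase entry divided by the robust mean of no-drug controls, capped at 1.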

[2] = tested on: S. pneumoniae D39V; test: Bliss interaction score (quartile over a dose matrix) (fitness difference); higher = more antagonism (negative = synergy)
Method in brief: (§1)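 Fitness is OD595 at stationary-phase entry relative to the plate's robust no-drug mean, capped at 1. Single-drug fitness was inferred from combinations. The Bliss score is observed minus product-expected fitness, summarised by quartiles over technical, biological and donor/recipient replicates.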

[3] = tested on: S. aureus DSM 20231; test: as above
Method in brief: as §1

[4] = tested on: B. subtilis 168; test: as above
Method in brief: as §1

[5] = tested on: S. aureus Newman; test: as above
Method in brief: as §1
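For Bliss interaction score (quartile over a dose matrix) in this document: first quartile when negative (synergy) and third quartile when positive (antagonism).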

CO/N=C(\C(=O)N[C@@H]1C(=O)N2C(C(=O)[O-])=C(C[N+]3(C)CCCC3)CS[C@H]12)c1csc(N)n1 [Cefepime] + C[C@H]1COc2c(N3CCN(C)CC3)c(F)cc3c(=O)c(C(=O)O)cn1c23 [Levofloxacin]
fitness, [1]
Settings | partner 0.1725 µg/mL | partner 0.2 µg/mL | partner 0.345 µg/mL | partner 0.4 µg/mL | partner 0.69 µg/mL | partner 0.8 µg/mL
first compound 0.007 µg/mL | – | 0.996 | – | 0.951 | – | 0.779
first compound 0.0078 µg/mL | 0.991 | – | 0.937 | – | 0.727 | –
first compound 0.014 µg/mL | – | 0.993 | – | 0.963 | – | 0.768
first compound 0.0155 µg/mL | 0.928 | – | 0.924 | – | 0.62 | –
first compound 0.028 µg/mL | – | 0.935 | – | 0.861 | – | 0.516

Settings | Bliss interaction score
[2] | 0.157
[3] | 0.0646
[4] | 0.0275
[5] | 0.0639

CO/N=C(\C(=O)N[C@@H]1C(=O)N2C(C(=O)[O-])=C(C[N+]3(C)CCCC3)CS[C@H]12)c1csc(N)n1 [Cefepime] + Clc1ccc(COC(Cn2ccnc2)c2ccc(Cl)cc2Cl)c(Cl)c1 [Miconazole]
[1]
Settings | fitness
first compound 0.007 µg/mL, partner 1.25 µg/mL | 0.985
first compound 0.007 µg/mL, partner 2.5 µg/mL | 0.982
first compound 0.007 µg/mL, partner 5 µg/mL | 0.965
first compound 0.0078 µg/mL, partner 1.073 µg/mL | ≥ 1
first compound 0.0078 µg/mL, partner 2.145 µg/mL | ≥ 1
first compound 0.0078 µg/mL, partner 4.29 µg/mL | 0.948
first compound 0.014 µg/mL, partner 1.25 µg/mL | 0.934
first compound 0.014 µg/mL, partner 2.5 µg/mL | 0.969
first compound 0.014 µg/mL, partner 5 µg/mL | 0.943
first compound 0.0155 µg/mL, partner 1.073 µg/mL | 0.995
first compound 0.0155 µg/mL, partner 2.145 µg/mL | 0.851
first compound 0.0155 µg/mL, partner 4.29 µg/mL | 0.848
first compound 0.028 µg/mL, partner 1.25 µg/mL | 0.87
first compound 0.028 µg/mL, partner 2.5 µg/mL | 0.872
first compound 0.028 µg/mL, partner 5 µg/mL | 0.861
first compound 0.031 µg/mL, partner 4.29 µg/mL | 0.491

Settings | Bliss interaction score
[2] | 0.0753
[3] | -0.109
[4] | 0.0393
[5] | -0.0643

CO/N=C(\C(=O)N[C@@H]1C(=O)N2C(C(=O)[O-])=C(C[N+]3(C)CCCC3)CS[C@H]12)c1csc(N)n1 [Cefepime] + O=C1CN(/N=C/c2ccc([N+](=O)[O-])o2)C(=O)N1 [Nitrofurantoin]
fitness, [1]
Settings | first compound 0.007 µg/mL | first compound 0.0078 µg/mL | first compound 0.014 µg/mL | first compound 0.0155 µg/mL | first compound 0.028 µg/mL | first compound 0.031 µg/mL
partner 1.285 µg/mL | – | 0.957 | – | 0.943 | – | 0.811
partner 2 µg/mL | 0.988 | – | 0.979 | – | 0.912 | –
partner 2.57 µg/mL | – | 0.962 | – | 0.942 | – | 0.738
partner 4 µg/mL | 0.991 | – | 0.955 | – | 0.887 | –
partner 8 µg/mL | 0.949 | – | 0.927 | – | 0.843 | –

[1], partner 5.14 µg/mL, one replicate
Settings | fitness
first compound 0.0078 µg/mL | 0.959
first compound 0.0155 µg/mL | 0.993
first compound 0.031 µg/mL | 0.825

Settings | Bliss interaction score
[2] | 0.188
[3] | 0.0422
[4] | -0.125
[5] | 0.0549

CCCCCCCCCC(=O)N[C@@H](Cc1c[nH]c2ccccc12)C(=O)N[C@H](CC(N)=O)C(=O)N[C@@H](CC(=O)O)C(=O)N[C@@H]1C(=O)NCC(=O)N[C@@H](CCCN)C(=O)N[C@@H](CC(=O)O)C(=O)N[C@H](C)C(=O)N[C@@H](CC(=O)O)C(=O)NCC(=O)N[C@H](CO)C(=O)N[C@@H]([C@H](C)CC(=O)O)C(=O)N[C@@H](CC(=O)c2ccccc2N)C(=O)O[C@@H]1C [Daptomycin] + CO[C@H]1/C=C/O[C@@]2(C)Oc3c(C)c(O)c4c(O)c(c(/C=N/N5CCN(C)CC5)c(O)c4c3C2=O)NC(=O)/C(C)=C\C=C\[C@H](C)[C@H](O)[C@@H](C)[C@@H](O)[C@@H](C)[C@H](OC(C)=O)[C@@H]1C [Rifampicin]
fitness, [1]
Settings | first compound 1 µg/mL | first compound 2 µg/mL | first compound 4 µg/mL
partner 0.025 µg/mL | 0.978 | ≥ 1 | ≥ 1
partner 0.05 µg/mL | 0.823 | 0.864 | 0.926
partner 0.1 µg/mL | 0.262 | 0.271 | –

[1], partner 0.2 µg/mL, one replicate
Settings | fitness
first compound 1 µg/mL | 0
first compound 2 µg/mL | 0
first compound 4 µg/mL | 0

Settings | Bliss interaction score
[2] | 0.104
[3] | -0.0427
[4] | -0.0667
[5] | 0.0195

CCCCCCCCCC(=O)N[C@@H](Cc1c[nH]c2ccccc12)C(=O)N[C@H](CC(N)=O)C(=O)N[C@@H](CC(=O)O)C(=O)N[C@@H]1C(=O)NCC(=O)N[C@@H](CCCN)C(=O)N[C@@H](CC(=O)O)C(=O)N[C@H](C)C(=O)N[C@@H](CC(=O)O)C(=O)NCC(=O)N[C@H](CO)C(=O)N[C@@H]([C@H](C)CC(=O)O)C(=O)N[C@@H](CC(=O)c2ccccc2N)C(=O)O[C@@H]1C [Daptomycin] + C[C@@H](O)[C@H]1C(=O)N2C(C(=O)O)=C(SCCNC=N)C[C@H]12 [Imipenem]
fitness, [1]
Settings | partner 0.005 µg/mL | partner 0.0065 µg/mL | partner 0.01 µg/mL | partner 0.013 µg/mL | partner 0.02 µg/mL | partner 0.026 µg/mL
first compound 1 µg/mL | 0.962 | 0.886 | 0.986 | 0.808 | 0.935 | 0.716
first compound 2 µg/mL | 0.979 | 0.895 | 0.931 | 0.837 | 0.989 | 0.843
first compound 4 µg/mL | 0.902 | 0.93 | 0.884 | 0.947 | 0.897 | 0.887

Settings | Bliss interaction score
[2] | 0.0763
[3] | 0.0417
[4] | -0.0985
[5] | 0.0265
